According to patent US20140018537A1, “GPR119 AGONIST” (NIPPON CHEMIPHAR CO., LTD., priority 2008, published 2014):

Legend:
human GPR119 = molecular target: T1, human GPR119 (Homo sapiens, UniProt Q8TDV5); experiment: Intracellular cAMP increase in human GPR119 introduced cells (HitHunter cAMP XS+ Assay); type: cell-based; details: for EC50: hGPR119 stable cells, intracellular cAMP; for GPR119 agonist effect (in words): hGPR119 introduced cells, cAMP
T1 construct: expressed in transfected cells
T1 sequence (Q8TDV5 1-335): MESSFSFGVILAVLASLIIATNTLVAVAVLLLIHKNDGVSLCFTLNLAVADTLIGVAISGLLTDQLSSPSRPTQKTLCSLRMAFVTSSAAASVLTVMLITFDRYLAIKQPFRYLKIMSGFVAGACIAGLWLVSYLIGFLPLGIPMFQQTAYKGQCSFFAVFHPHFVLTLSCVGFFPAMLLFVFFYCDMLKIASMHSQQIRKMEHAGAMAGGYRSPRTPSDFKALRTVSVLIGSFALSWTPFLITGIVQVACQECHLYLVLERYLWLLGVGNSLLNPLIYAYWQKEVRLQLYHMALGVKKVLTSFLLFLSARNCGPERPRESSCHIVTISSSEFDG
From the text: The GPR119 agonist effect was studied by measuring the effect of an analyte on increase of intracellular amount of cAMP in human GPR119 introduced cells. The testing method is described below.
(1) Construction of the Stable Cell Line Expressing Human G Protein-Coupled-Receptor 119 (hGPR119) Human GPR119 gene (NM 178471) is purchased from American Type Culture Collection (ATCC No. 10807349). Hind III site-added forward side primer ([…]: sequence No. 1) and Apa I site-added reverse side primer ([…]: sequence No. 2) are designed. The target gene is amplyfied by a polymerase chain reaction (PCR) method using KOD-Plus-Ver. 2 (TOYOBO #KOD-211). PCR is conducted by repeating three steps consisting of the step of 98° C.-10 seconds, the step of 55° C.-30 seconds, and the step of 68° C.-1 minute and 10 seconds in 35 cycles. The amplified PCR product is inserted into pcDNA5/FRT/TO (Invitrogen #V6520-20) plasmid. Cells, which can constantly express the target gene with tetracycline, are constructed using Flp-In T-REx-systen (invitorogen).
(2) Measurement of Intracellular Cyclic Adenosine Monophosphate (cAMP)
The hGPR119 introduced cells prepared in (1) are plated on a 96-well plate using Dulbecco's Modified Eagle Medium containing heat-inactived 10% fetal bovine serum. After incubation of 24 hours, tetracyclin (invitrogen #Q10019) is added to the culture medium to induce hGPR119 gene expression. After further incubation of 24 hours, the cells are stimulated with 0.5 mM 3-ISOBUTYL-1-METHYLXANTHINE (Sigma #17018) phosphate buffer containing the analyte at 37° C. for 30 minutes. The amount of the intracellular cAMP is measured by using FLUOstar Optima (BMG LABTECH) according to the protocol of HitHunter™ cAMP XS+Assay (GE Healthcare #90007503) to give the agonist activity of the analyte to the GPR119 receptor.
(1) Construction of the Stable Cell Line Expressing Human G-Protein Coupled Receptor 119 (hGPR119) hGPR119 gene (NM 178471) was purchased from American Type Culture Collection (ATCC No. 10807349). The forward primer that was added a HindIII site ([…] (sequence number 1)), and the reverse primer that was added an ApaI site ([…] (sequence number 2)) were designed, the target gene was amplified by polymerase chain reaction (PCR) using a KOD-Plus-Ver.2 (TOYOBO #KOD-211). PCR was repeated 3 steps (98° C. for 10 sec, 55° C. for 30 sec, 68° C. for 1 min 15 sec) by 35 cycles. Amplified PCR product was inserted in pcDNA5/FRT/TO (Invitrogen #V6520-20), and the stable cell line that expresses target gene when induced with tetracycline was created using the Flp-In T-Rex system (Invitrogen).
(2) Measuring Method of Intracellular Cyclic Adenosine Monophosphate (cAMP) hGPR119 stable cells made by above-mentioned (1) were plated on 96 well plates in Dulbecco's Modified Eagle Medium containing 10% heat-inactivated FBS. After 24 hours, the hGPR119 expression was induced by adding medium containing tetracycline (Invitrogen #Q10019) and incubating for another 24 hours. Following incubation, cells were stimulated by 0.5 mM 3-ISOBUTYL-1-METHYLXANTHINE (Sigma #17018) phosphate buffered saline containing test compound for 30 minutes at 37° C. Agonist activity of test compound to the GPR119 receptor was estimated by measuring the intracellular cAMP concentration using a Fluostar optima plate reader (BMG LABTECH) according to the manufacturer's protocol of the HitHunter™ cAMP XS+Assay (GE Healthcare #90007503).
The examination was performed by the method similar to Example 86 (Pharmacological experiment 1)-(1), -(2).

normal mice = experiment: Oral glucose tolerance test in normal mice; type: in vivo
Description: Oral glucose tolerance is tested in normal mice.
In this experiment, the inhibitory effect of an analyte on glycemic excursions is examined after glucose administration in normal mice. The test methods are described below.
Male 9-week-old ICR mice, habituated to the experimental environment for two weeks, are fasted for 18 hours and used to this experiment. Mice are orally administered the analyte or vehicle (polyethylene glycol 400:ethanol:Tween 80=8:1:1). After 30 minutes, they were orally given glucose at the dose of 3 g/kg.
Blood was collected at just before the analyte or vehicle administration (−30 minutes), immediately before glucose challenge (0 minute), 20 minutes, 40 minutes, 60 minutes, and 120 minutes after glucose ingestion to determine blood glucose levels.
Inhibition rate (%) of the analyte versus vehicle in areas under the glycemic excursion curve between 0 and 120 min after glucose challenge is determined.
Oral Glucose Tolerance Test in Normal Mice […]
Blood was collected at just before the test compound or vehicle administration (−30 min), immediately before glucose challenge (0 min), 20 min, 40 min, 60 min and 120 min after glucose ingestion and then blood glucose levels were determined.
Inhibition rate (%) of the test compound versus vehicle in areas under the glycemic excursion curve between 0 and 120 min after glucose challenge was determined.

[1] = Table 16, tetracycline-induced, 30 minutes at 37° C.
[2] = Table 17, method similar to Example 86

melting point	EC50 (human GPR119; [2])	SMILES	further results
140 to 142 °C	–	CC(C)(C)OC(=O)N1CCC(c2ccc(COc3ccc(S(C)(=O)=O)cc3)cn2)CC1 [Example 2, tert-Butyl 4-[5-(4-methanesulfonylphenoxymethyl)pyridin-2-yl]piperidine-1-carboxylate]	EC50 (human GPR119; [1]): 606 nM; GPR119 agonist effect (in words) (human GPR119): excellent GPR119 agonist effect
143 to 145 °C	137 nM	CC(C)c1nc(N2CCC(c3ccc(COc4ccc(S(C)(=O)=O)cc4)nc3)CC2)no1 [Example 8, 5-[1-(5-Isopropyl-1,2,4-oxadiazol-3-yl)piperidin-4-yl]-2-(4-methanesulfonylphenoxymethyl)pyridine]	–
114 to 115 °C	114 nM	CCC(C)(C)OC(=O)N1CCC(c2ccc(COc3ccc(S(C)(=O)=O)cc3)nc2)CC1 [Example 41, 1,1-Dimethylpropyl 4-[2-(4-methanesulfonylphenoxymethyl)pyridin-5-yl]piperidine-1-carboxylate]	–
174 to 176 °C	–	CCCCCc1cnc(N2CCC(c3ccc(COc4ccc(-n5cnnn5)cc4)nc3)CC2)nc1 [Example 56, 5-Pentyl-2-[4-[2-[4-(tetrazol-1-yl)phenoxymethyl]pyridin-5-yl]piperidin-1-yl]pyrimidine]	–
148 to 150 °C	–	CC(C)(C)OC(=O)N1CC=C(c2cnc(COc3ccc(S(C)(=O)=O)cc3)cc2Cl)CC1 [Example 76, tert-Butyl 4-[4-chloro-2-(4-methanesulfonylphenoxymethyl)pyridin-5-yl]-3,6-dihydro-2H-pyridine-1-carboxylate]	–
143 to 145 °C	65.9 nM	Cc1cc(C2CCN(C(=O)OC(C)(C)C)CC2)cnc1COc1ccc(S(C)(=O)=O)cc1Cl [Example 80, tert-Butyl 4-[2-(2-chloro-4-methanesulfonylphenoxymethyl)-3-methylpyridin-5-yl]piperidine-1-carboxylate]	–

More lines, now with the values behind:

SMILES	melting point	EC50 (human GPR119; [2])	further results
CC(C)(C)OC(=O)N1CCC(c2ccc(COc3ccc(S(C)(=O)=O)cc3)nc2)CC1 [Example 1, tert-Butyl 4-[2-(4-methanesulfonylphenoxymethyl)pyridin-5-yl]piperidine-1-carboxylate]	–	–	EC50 (human GPR119; [1]): 26.8 nM; GPR119 agonist effect (in words) (human GPR119): excellent GPR119 agonist effect; Inhibition rate (%) (normal mice; 10 mg/kg oral, male ICR mice, glucose 3 g/kg 30 min later, area under glycemic excursion curve 0-120 min versus vehicle): 41.8%; inhibitory effect on glycemic excursions (in words) (normal mice; oral glucose tolerance test of normal mice): strong inhibitory effect
CC(C)(C)OC(=O)N1CCC(c2ccc(COc3ccc(-n4cncn4)cc3)nc2)CC1 [Example 16, tert-Butyl 4-[2-[4-(1,2,4-triazol-1-yl)phenoxymethyl]pyridin-5-yl]piperidine-1-carboxylate]	147 to 150 °C	129 nM	–
CCc1cnc(N2CCC(c3ccc(COc4ccc(S(C)(=O)=O)cc4)nc3)CC2)nc1 [Example 48, 5-Ethyl-2-[4-[2-(4-methanesulfonylphenoxymethyl)pyridin-5-yl]piperidin-1-yl]pyrimidine]	185 to 187 °C	137 nM	–
CCCCCc1cnc(N2CCC(c3ccc(COc4ccc(S(C)(=O)=O)cc4)nc3)CC2)nc1 [Example 50, 2-[4-[2-(4-Methanesulfonylphenoxymethyl)pyridin-5-yl]piperidin-1-yl]-5-pentylpyrimidine]	154 to 157 °C	–	–
CCc1cnc(N2CCC(c3ccc(COc4ccc(C#N)c(F)c4)nc3)CC2)nc1 [Example 52, 2-[4-[2-(4-Cyano-3-fluorophenoxymethyl)pyridin-5-yl]piperidin-1-yl]-5-ethylpyrimidine]	129 to 131 °C	–	–
CCCCCc1cnc(N2CCC(c3ccc(COc4ccc(C#N)c(F)c4)nc3)CC2)nc1 [Example 54, 2-[4-[2-(4-Cyano-3-fluorophenoxymethyl)pyridin-5-yl]piperidin-1-yl]-5-pentylpyrimidine]	92 to 94 °C	–	–
Cc1cc(C2CCN(C(=O)OC(C)(C)C)CC2)cnc1COc1ccc(S(C)(=O)=O)cc1 [Example 63, tert-Butyl 4-[2-(4-methanesulfonylphenoxymethyl)-3-methylpyridin-5-yl]piperidine-1-carboxylate]	130 to 132 °C	28.4 nM	–
COc1cc(C2CCN(C(=O)OC(C)(C)C)CC2)cnc1COc1ccc(S(C)(=O)=O)cc1 [Example 67, tert-Butyl 4-[2-(4-methanesulfonylphenoxymethyl)-3-methoxypyridin-5-yl]piperidine-1-carboxylate]	153 to 154 °C	–	–
